This note sets out measurements from patent US20030153622A1, “Ophthalmic solution and contact lens solution” (MENICON CO., LTD., priority 2001, published 2003).

Structures are written as SMILES.

This data set can be described thus: Characteristics of Component B (isoelectric point; pH and osmotic pressure in 0.1 mol/L aqueous solution). In kind it is physicochemical. The settings on record: for Isoelectric point: Component B; for Osmotic pressure / pH: Component B in 0.1 mol/L aqueous solution. The text has this:
As the Component A, polyhexamethylene biguamide (PHMB) was used. As the Component B (tonicity adjusting agent), different kinds of the amino-acid-based components having different isoelectric points as indicated in the following TABLE 2 were used. […] As the chelating agent, disodium salt of ethylenediamine tetraacetic acid (EDTA·2Na) was used.

Regarding `N=C(N)NCCC[C@H](N)C(=O)O` [arginine], the Isoelectric point is 10.76, the Osmotic pressure is on record as 100 mOsm/kg and the pH is 11.20.
The molecule `NCCCCCC(=O)O` [ε-aminocaproic acid] returned an Isoelectric point of 7.60, an Osmotic pressure of 106 mOsm/kg and a pH of 7.54.
On the same counts, the results for `CC(N)C(=O)O` (racemic) [DL-alanine] are 6.00, 104 mOsm/kg and 6.05.
On the same counts, the results for `N[C@@H](Cc1ccccc1)C(=O)O` [L-phenylalanine] are 5.48, 105 mOsm/kg and 6.14.
`CC(C)[C@H](N)C(=O)O` [L-valine] registered an Isoelectric point of 5.96, an Osmotic pressure of 103 mOsm/kg and a pH of 7.83.
In turn, `Cl.N=C(N)NCCC[C@H](N)C(=O)O` [arginine hydrochloride] showed an Isoelectric point of 10.76, an Osmotic pressure of 181 mOsm/kg and a pH of 5.62.
In the same order, the values of `C[C@@H](O)[C@H](N)C(=O)O` [L-threonine] are 6.16, 102 mOsm/kg and 5.88.
Consider `NCCCC(=O)O` [γ-aminobutyric acid], for which the Isoelectric point came to 7.30, the Osmotic pressure is recorded as 107 mOsm/kg and the pH was 5.96.
`Cl.N[C@@H](Cc1c[nH]cn1)C(=O)O` [L-histidine hydrochloride]: the Isoelectric point turned out to be 7.59, the Osmotic pressure is recorded as 105 mOsm/kg and the pH is given as 5.80.
In the same order, the values of `N[C@@H](CO)C(=O)O` [L-serine] are 5.68, 105 mOsm/kg and 6.12.
In the same order, the values of `Cl.NCCCC[C@H](N)C(=O)O` [lysine hydrochloride] are 9.74, 105 mOsm/kg and 5.91.
On to `NCCS(=O)(=O)O` [taurine], for which the Isoelectric point came to 4.50, the Osmotic pressure was found to be 106 mOsm/kg and the pH was 5.19.
As for `N[C@@H](CS)C(=O)O` [L-cysteine], the Isoelectric point was 5.07, the Osmotic pressure was 102 mOsm/kg and the pH is reported as 5.86.
Turning to `O=C(O)[C@@H]1CCCN1` [L-proline], the Isoelectric point was determined as 6.30, the Osmotic pressure is reported as 104 mOsm/kg and the pH was 5.90.
On to `O=C(O)[C@@H]1C[C@@H](O)CN1` [L-oxyproline], for which the Isoelectric point was determined as 5.83, the Osmotic pressure is 105 mOsm/kg and the pH is given as 5.87.
